Legend:
[1] = molecular target: T1, Peroxisome proliferator-activated receptor alpha (Homo sapiens, UniProt Q07869); experiment: Displacement of [3H]GW 2433 from human PPARalpha by scintillation proximity assay
T1 sequence (Q07869 whole entry): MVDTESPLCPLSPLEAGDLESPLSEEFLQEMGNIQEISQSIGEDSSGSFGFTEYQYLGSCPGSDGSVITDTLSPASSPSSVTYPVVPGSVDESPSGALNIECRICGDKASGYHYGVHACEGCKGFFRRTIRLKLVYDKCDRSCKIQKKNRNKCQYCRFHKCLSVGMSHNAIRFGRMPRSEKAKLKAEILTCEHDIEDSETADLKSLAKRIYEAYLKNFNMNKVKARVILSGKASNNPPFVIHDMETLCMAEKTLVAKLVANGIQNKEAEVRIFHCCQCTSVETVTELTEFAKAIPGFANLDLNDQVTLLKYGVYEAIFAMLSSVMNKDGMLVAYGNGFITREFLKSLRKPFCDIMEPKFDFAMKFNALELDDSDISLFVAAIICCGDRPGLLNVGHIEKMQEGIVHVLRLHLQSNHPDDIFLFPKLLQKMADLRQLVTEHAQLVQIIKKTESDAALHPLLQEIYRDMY

[2] = molecular target: T2, Peroxisome proliferator-activated receptor delta (Homo sapiens, UniProt Q03181)
T2 sequence (Q03181 whole entry): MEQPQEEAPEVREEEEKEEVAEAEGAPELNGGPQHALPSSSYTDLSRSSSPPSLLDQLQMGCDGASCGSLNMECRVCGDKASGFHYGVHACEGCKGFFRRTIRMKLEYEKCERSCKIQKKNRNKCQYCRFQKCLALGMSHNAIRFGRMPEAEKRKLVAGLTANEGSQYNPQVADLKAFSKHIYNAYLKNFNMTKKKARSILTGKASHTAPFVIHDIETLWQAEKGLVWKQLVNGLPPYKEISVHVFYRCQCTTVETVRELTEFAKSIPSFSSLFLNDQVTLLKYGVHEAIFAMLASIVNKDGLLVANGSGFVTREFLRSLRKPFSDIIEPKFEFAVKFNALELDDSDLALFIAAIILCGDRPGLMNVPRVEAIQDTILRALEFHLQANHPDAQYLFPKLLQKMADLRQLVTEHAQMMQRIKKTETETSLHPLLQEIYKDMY
Description: Displacement of [3H]GW 2433 from human PPARdelta by scintillation proximity assay

[3] = molecular target: T3, Peroxisome proliferator-activated receptor gamma (Homo sapiens, UniProt P37231)
T3 sequence (P37231 whole entry): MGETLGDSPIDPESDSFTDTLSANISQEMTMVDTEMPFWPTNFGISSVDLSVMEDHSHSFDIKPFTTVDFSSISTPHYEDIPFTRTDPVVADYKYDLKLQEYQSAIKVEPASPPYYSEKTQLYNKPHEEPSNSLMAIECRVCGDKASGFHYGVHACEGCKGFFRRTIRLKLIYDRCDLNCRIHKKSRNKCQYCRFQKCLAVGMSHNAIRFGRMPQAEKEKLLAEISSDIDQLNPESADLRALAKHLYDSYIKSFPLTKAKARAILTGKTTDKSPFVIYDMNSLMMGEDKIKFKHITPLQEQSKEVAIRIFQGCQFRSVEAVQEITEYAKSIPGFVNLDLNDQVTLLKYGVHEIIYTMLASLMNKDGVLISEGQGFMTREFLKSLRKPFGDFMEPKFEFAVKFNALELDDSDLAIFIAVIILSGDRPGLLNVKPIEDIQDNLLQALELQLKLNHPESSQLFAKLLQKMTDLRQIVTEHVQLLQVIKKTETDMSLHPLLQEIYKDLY
Description: Displacement of [3H]GW 2433 from human PPARgamma by scintillation proximity assay

[4] = molecular target: T2, Peroxisome proliferator-activated receptor delta; remark: listed apart in the source
Description: Partial agonist activity at human PPARdelta expressed in african green monkey CV1 cells transfected with Gal4 assessed as beta-galactosidase activity by transactivation assay

Compound | IC50 [1] [µM] | IC50 [2] [nM] | IC50 [3] [µM] | EC50 [4] [nM]
CCCCN(c1cccc(-c2ccc(Cl)cc2)c1C)S(=O)(=O)c1ccc(OC(C)C(=O)O)c(F)c1F (stereo not drawn) | 10 | 631 | – | –
CCCCN(c1cccc(-c2ccc(Cl)cc2)c1C)S(=O)(=O)c1ccc(OC(C)C(=O)O)c(C2CCCCC2)c1 (stereo not drawn) | 15.8 | 15.8 | 7.94 | 15.8
CCCCN(c1cccc(-c2ccc(Cl)cc2)c1C)S(=O)(=O)c1ccc(OCC(=O)O)c(C)c1C | 6.31 | 12.6 | 2.51 | 2
CCCCN(c1cccc(-c2ccc(Cl)cc2)c1C)S(=O)(=O)c1ccc(OC(C)C(=O)O)c(Cl)c1Cl (stereo not drawn) | 10 | 79.4 | – | 63.1
CCCCN(c1ccc(C)c(-c2ccc(Cl)cc2)c1)S(=O)(=O)c1ccc(OC(C)C(=O)O)c(C)c1C (stereo not drawn) | 20 | 398 | 3.16 | 126
CCCCN(c1cccc(-c2cccc(Cl)c2)c1C)S(=O)(=O)c1ccc(OC(C)C(=O)O)c(C)c1C (stereo not drawn) | 7.94 | 631 | – | 501
CCCCN(c1cccc(-c2ccc(Cl)cc2)c1C)S(=O)(=O)c1ccc(OC(C)C(=O)O)c(F)c1Cl (stereo not drawn) | 12.6 | 251 | – | 398
CCCCN(c1cccc(-c2ccc(Cl)cc2)c1C)S(=O)(=O)c1ccc(OC(CCC)C(=O)O)c(C)c1C (stereo not drawn) | 10 | 158 | – | > 10000
Cc1cc(S(=O)(=O)N(CCC(C)C)c2cccc(-c3ccc(C(F)(F)F)cc3)c2)ccc1OCC(=O)O | 15.8 | 1260 | 5.01 | 158
CCCCN(c1cccc(-c2ccc(Cl)cc2)c1C)S(=O)(=O)c1ccc(O[C@@H](C)C(=O)O)c(C)c1C | 15.8 | 631 | – | 316
CCCCN(c1ccc(F)c(-c2ccc(Cl)cc2)c1)S(=O)(=O)c1ccc(OC(C)C(=O)O)c(C)c1C (stereo not drawn) | 20 | 200 | 2 | 39.8
CCCCN(c1cc(-c2ccc(Cl)cc2)ccc1OC(F)(F)F)S(=O)(=O)c1ccc(OC(C)C(=O)O)c(C)c1C (stereo not drawn) | 12.6 | 3160 | 10 | 1000
CCCCN(c1cccc(-c2ccc(Cl)cc2)c1C)S(=O)(=O)c1ccc(OC(C)C(=O)O)c(F)c1OC (stereo not drawn) | 15.8 | – | – | –
CCCCCN(c1cccc(-c2ccc(Cl)cc2)c1C)S(=O)(=O)c1ccc(OC(C)C(=O)O)c(C)c1C (stereo not drawn) | 15.8 | 794 | – | 398
CCCCN(c1cccc(-c2ccc(Cl)cc2)c1C)S(=O)(=O)c1ccc(O[C@H](C)C(=O)O)c(C)c1C | 20 | 25.1 | – | 12.6
CCCCN(c1cc(-c2ccc(Cl)cc2)c(F)cc1F)S(=O)(=O)c1ccc(OC(C)C(=O)O)c(C)c1C (stereo not drawn) | 10 | 3160 | 1.58 | 1260
CCCCN(c1cc(-c2ccc(Cl)cc2)cc(C(F)(F)F)c1)S(=O)(=O)c1ccc(OC(C)C(=O)O)c(C)c1C (stereo not drawn) | 12.6 | 63.1 | 5.01 | 100
CCCCN(c1cccc(-c2ccc(C(F)(F)F)cc2)c1C)S(=O)(=O)c1ccc(OC(C)C(=O)O)c(C)c1C (stereo not drawn) | 15.8 | 15.8 | – | –
CCCCN(c1cccc(-c2ccc(C)cc2)c1C)S(=O)(=O)c1ccc(OC(C)C(=O)O)c(C)c1C (stereo not drawn) | 15.8 | 79.4 | – | 31.6

Compound | IC50 [1] [µM] | IC50 [2] [nM] | IC50 [3] [µM] | EC50 [4] [nM]
CCCCN(c1cccc(-c2ccc(Cl)cc2)c1OC)S(=O)(=O)c1ccc(OC(C)C(=O)O)c(C)c1C (stereo not drawn) | 12.6 | 25.1 | – | 20
CCCCN(c1cc(-c2ccc(Cl)cc2)c(F)cc1C)S(=O)(=O)c1ccc(OC(C)C(=O)O)c(C)c1C (stereo not drawn) | 10 | 5010 | 7.94 | 3160
Cc1c(-c2ccc(Cl)cc2)cccc1N(CCCC(F)(F)F)S(=O)(=O)c1ccc(OC(C)C(=O)O)c(C)c1C (stereo not drawn) | 20 | 1260 | – | 2000
CCCN(c1cccc(-c2ccc(Cl)cc2)c1C)S(=O)(=O)c1ccc(OC(C)C(=O)O)c(C)c1C (stereo not drawn) | 20 | 126 | – | 79.4
Cc1c(-c2ccc(Cl)cc2)cccc1N(CC1CCC1)S(=O)(=O)c1ccc(OC(C)C(=O)O)c(C)c1C (stereo not drawn) | 12.6 | 1000 | – | 501
CCCCN(c1c(C)cc(C)c(-c2ccc(Cl)cc2)c1C)S(=O)(=O)c1ccc(OC(C)C(=O)O)c(C)c1C (stereo not drawn) | 20 | 10000 | 7.94 | > 10000
Cc1c(-c2ccc(Cl)cc2)cccc1N(CC1CC1)S(=O)(=O)c1ccc(OC(C)C(=O)O)c(C)c1C (stereo not drawn) | 15.8 | 794 | – | 794
COCCN(c1cccc(-c2ccc(Cl)cc2)c1C)S(=O)(=O)c1ccc(OC(C)C(=O)O)c(C)c1C (stereo not drawn) | > 20 | 501 | – | 501
CCCCN(c1cccc(-c2ccc(Cl)cc2)c1C)S(=O)(=O)c1ccc(OC(C)C(=O)O)c(OC)c1Cl (stereo not drawn) | 15.8 | 158 | – | 316
CCCCN(c1cc(-c2ccc(Cl)cc2)ccc1C)S(=O)(=O)c1ccc(OC(C)C(=O)O)c(C)c1C (stereo not drawn) | 10 | 1580 | 6.31 | 794
CCCCN(c1cccc(-c2ccc(OC)cc2)c1C)S(=O)(=O)c1ccc(OC(C)C(=O)O)c(C)c1C (stereo not drawn) | 15.8 | 100 | – | 39.8
CCCCC(Oc1ccc(S(=O)(=O)N(CCCC)c2cccc(-c3ccc(Cl)cc3)c2C)c(C)c1C)C(=O)O (stereo not drawn) | 10 | 158 | – | > 10000
CCCCN(c1cccc(-c2ccc(Cl)cc2)c1C)S(=O)(=O)c1ccc(OC(CC)C(=O)O)c(C)c1C (stereo not drawn) | 15.8 | 63.1 | – | 126
CCCCN(c1cccc(-c2ccc(Cl)c(Cl)c2)c1C)S(=O)(=O)c1ccc(OC(C)C(=O)O)c(C)c1C (stereo not drawn) | 20 | 126 | – | 126
CCCCN(c1cccc(-c2ccc(OC(F)(F)F)cc2)c1C)S(=O)(=O)c1ccc(OC(C)C(=O)O)c(C)c1C (stereo not drawn) | 10 | 79.4 | – | 39.8
CCCCN(c1cccc(-c2ccccc2Cl)c1C)S(=O)(=O)c1ccc(OC(C)C(=O)O)c(C)c1C (stereo not drawn) | 12.6 | 1580 | – | 2000
CCCCN(c1cccc(-c2ccc(Cl)cc2)c1C)S(=O)(=O)c1ccc(OC(C)C(=O)O)c(OC)c1OC (stereo not drawn) | > 25.1 | 5010 | – | > 10000
CCCCN(c1cccc(-c2ccc(Cl)cc2)c1Cl)S(=O)(=O)c1ccc(OC(C)C(=O)O)c(C)c1C (stereo not drawn) | 12.6 | 7.94 | – | 10
